Test results taken from patent publication US6458760B1, “Method for treating tissue damaged from ischemia” (Henry Ford Health System, priority 1998, dated 2002).
Residues, ends and D or L forms follow the SMILES beside them. *: point of attachment. Cbz = O=C(OCc1ccccc1)*; CHN2 = [N-]=[N+]=C*; Bn = c1ccc(C*)cc1

Columns and labels:
Calpain = Calpain inactivation rate, fluorimetric progress curves; type: biochemical; settings: second order inactivation rate constant corrected for substrate; substrate Suc-Leu-Tyr-AMC; pH 7.5, 37° C.
Method: (§1) (“Tian, et al.”) the contents of which are incorporated by reference. More specifically, the value of kobs is given by the slope of a plot of ln [P]∞−[p]t versus t (time). The apparent second-order rate contact for inactivation, k2app was calculated as kobs/[I]. The inactivation-rates (kobs) in the presence of substrate and for different inhibitor concentrations for calpain, cathepsin B and cathepsin L are determined according to the method of Tian, et al. However, k2app is corrected for the presence of substrate (s) to give the second order rate constant k^12app, calculated as k^12app=k2app (1+[s]/Km).
Calpain was assayed fluorimetrically in 1 ml of 50 mM Tris/acetate buffer, pH 7.5, containing 5 mM CaCl2, 2.5 mM DTT(dithiothreitol), 0.1% Triton X-100 at 37° C., using 2.5×10^−4 M Suc-Leu-Tyr-aminomethylcoumarin (AMC) (Novabiochem, Switzerland) as substrate and 50nM (final concentration) of enzyme. The appearance of the 7-amino-4 methylcoumarin product was recorded continuously with a Perkin Elmer 650-10S spectrofluorimeter, a SPEX Fluorolog 1680, or SLM 8000C fluorescence spectrometer with excitation at 370 nm and emission at 460 nm.
Typically, 5 μL of the substrate solution (50 mM stock in DMSO) was added to 1 mL of buffer. Varying concentrations of the inhibitor solution (10 μL of a DMSO […] solution) were added, followed by 10 μL of calpain in the assay buffer. After allowing the reaction mixture to incubate for 2-5 min, during which time a steady baseline level of fluorescence was measured, calcium was added in a 10-μL volume to initiate hydrolysis of the fluorogenic substrate, and the resulting increase in fluorescence was monitored continuously. When inhibitors were tested at very low concentrations, the enzyme concentration was reduced to maintain a minimum of a 10-fold excess of inhibitor over enzyme.

Cathepsin B = Cathepsin B (Homo sapiens, UniProt P07858); assay: Cathepsin B inactivation rate, fluorimetric progress curves; type: biochemical; settings: second order inactivation rate constant corrected for substrate; pH 5.4, 30° C.
Method: as §1
Cathepsins B and L were preactivated with […] DTT in 50 mM sodium acetate buffer, pH 5.4, 1 mM EDTA for 2 h at 4° C. and assayed in the same buffer with 0.01% Brij [poly(oxyethylene) glycol dodecyl ether]. […] The inhibitors (0.1-1 μM) and substrate were added to the reaction mixture to incubate for 5 min in a cuvette thermostated at 30° C. Then, approximately 0.4 nM and 0.1 nM final concentration of cathepsin B and cathepsin L, respectively, were used to initiate the reaction. […] The progress curves were analyzed over at least 3 half lives to calculate the rate constants of inactivation in accordance with the procedure described by Crawford, C. Mason, R. W., Wilkström, P., and Shaw, E. in an article entitled “The design of peptidyldiazomethane inhibitors to distinguish between the cysteine proteinases calpain II, cathepsin L and cathepsin B.”, Biochem. J. 1988, 253, 751-758, the contents of which are incorporated by reference. The rates of inactivation of various substrates are tabulated hereinbelow.

[1] = test system: Wistar rats with MCA occlusion; assay: Stroke model, 3 h MCA occlusion, infarct volume at 7 days; type: in vivo, rat
Method: After anesthesia had been induced in the rat, a catheter was inserted into the femoral vein and tunneled subcutaneously in the posterior neck region. Body temperature was maintained at a constant temperature of 37° C. during surgical procedures. The animals underwent 2 hours of MCA occlusion, and then reperfusion when the suture was withdrawn, and immediately thereafter, the drug was infused for four hours. The animals were killed after a 7-day reperfusion, and the brains were formalin fixed and sliced 6-μm thick into seven coronal sections A-G, and mounted on coated slides. After staining with hematoxylin and eosin, the stroke volume was measured using an image analysis program. The stroke area and the contralateral hemispheric area were calculated by tracing the areas on the computer screen, and the volumes were determined by multiplying the appropriate area by the section interval thickness. The stroke volume is expressed as the percentage of lesion size to the volume of contralateral hemisphere. […]
CP-1 dissolved in 1% DMSO and isotonic saline was given intravenously to Wistar rats (15 μl/min) at a concentration of 50 μM for four hours beginning at the end of three hours of MCA occlusion, in accordance with the protocol described hereinabove. […] All animals which survived 7 days were sacrificed and the infarct volume was measured 7 days after the MCA occlusion. […]

[2] = Loss of body weight after MCA occlusion (Example 8); type: in vivo, rat
Method: The animal is able to move about and take water as needed. However, animals with severe stroke that are not able to maintain intake of water are supplemented with daily subcutaneous Lactated Ringers solution. Daily body weights are followed to assess nutritional status.
CP-1 dissolved in 1% DMSO and isotonic saline was given intravenously to Wistar rats (15 μl/min) at a concentration of 50 μM for four hours beginning at the end of three hours of MCA occlusion, in accordance with the protocol described hereinabove. Control animals underwent a similar protocol, but they had injected therein a 1% DMSO/Saline as the vehicle for four hours beginning at the end of a three hour MCA occlusion. All animals which survived 7 days were sacrificed and the infarct volume was measured 7 days after the MCA occlusion.
The % loss of body weight from CP-1 treated animals and the control group on Day 1 and Day 7 are tabulated hereinbelow.

[N-]=[N+]=CC(=O)C(COCc1ccccc1)NC(=O)C(Cc1ccccc1)NC(=O)OCc1ccccc1 (stereo not drawn) [CP-1, benzyloxycarbonyl-Phe-Ser(OBz)-CHN2] (Cbz-Phe-Ser(Bn)-CHN2; configuration not given here)
Calpain k′2app (Calpain): <10 M^−1S^−1 | Cathepsin B k′2app (Cathepsin B): 8,800 M^−1S^−1 | % Hemisphere Infact Volume (% ± SEM) ([1]; 50 μM i.v. for 4 h beginning at end of 3 h MCA occlusion, day 7, control 41.1 ± 2.4, P>0.05): 39.9 ± 4.1% | reducing infarct size ([1]; 50 μM, 3 hour MCA occlusion): not effective | % loss of body weight Day 1 ([2]; 50 μM i.v. 4 h, Example 8, control 19 ± 2.0): 16 ± 1.4% | % loss of body weight Day 7 ([2]; 50 μM i.v. 4 h, Example 8, control 32 ± 3.0): 28 ± 3.4% | loss of mean body weight, treated versus control ([2]; Day 1 and Day 7): no significant difference
